Our source for the water-octanol partition coefficient values is patent US10130710B2 (priority 2014, dated 2018).

SMILES strings stand for the structures. Where a name gives a salt, the structure may show the parent alone.

This data set is classed as physicochemical. Conditions: Log10(concentration in octanol phase/concentration in aqueous phase). An excerpt: Incidentally, the octanol-water partition coefficient herein is obtained by adding a target component to be measured into a flask charged with n-octanol and an aqueous buffer of pH 7 or water, shaking the resultant, and performing calculation, in accordance with the following equation, based on active ingredient concentrations in respective phases. Octanol-water partition coefficient=Log10(concentration in octanol phase/concentration in aqueous phase)
`O.O.O.O.O.O=P([O-])(O)C(O)(Cc1cccnc1)P(=O)(O)O.O=P([O-])(O)C(O)(Cc1cccnc1)P(=O)(O)O.[Na+].[Na+]` [risedronate monosodium hemipentahydrate, reference compound] had a water-octanol partition coefficient of −5.0.
With `CCCCC(CC)C(=O)OCC(COC(=O)C(CC)CCCC)OC(=O)C(CC)CCCC` (centres unmarked) [triethylhexanoin], the water-octanol partition coefficient came to 8.9.
For the compound `CC(C)CCCCCC(=O)OCC(C)(C)COC(=O)CCCCCC(C)C` [neopentyl glycol diisononanoate], the water-octanol partition coefficient was 7.2.
The figure for `CCCc1nc(C)c2c(=O)[nH]c(-c3cc(S(=O)(=O)N4CCN(CC)CC4)ccc3OCC)nn12` [verdenafil hydrochloride hydrate, reference compound] is 0.0.
The figure for `CCCCCCCCCCCCCC(=O)OCC(CCCCCCCC)CCCCCCCCCC` (centres unmarked) [octyldodecyl myristate] is 16.0; for `CC(C)CCCCCCCOC(=O)C(C)(C)C` [isodecyl neopentanoate] it is 5.9; for `CCCCCCCCCCCCCC(=O)OC(C)C` [isopropyl myristate] it is 7.2.
As to `CC(C)CCCCCCOC(=O)CCCCCC(C)C` [isononyl isononanoate], the water-octanol partition coefficient came to 6.5.
The figure for `CC(C)CCCC(C)CCCC(C)CCCCC(C)CCCC(C)CCCC(C)C` (centres unmarked) [squalane] is 14.7; for `CC12CC3CC(C)(C1)CC(N)(C3)C2` [memantine hydrochloride, reference compound] it is 0.3; for `CC(C)CCCCCCCCCCOC(=O)CCCCCC(C)C` [isotridecyl isononanoate] it is 9.2.
